Data taken from article PMC10146250, “Study on the liver Drug’s dominant metabolic enzymes for six effective components of the Huang qi Liuyi decoction” (Frontiers in Pharmacology, 2023).

Assays:
[1] = Metabolic conversion in the liver microsomal incubation system without inhibitor; settings: for Metabolic conversion rate under different reaction times: 0, 15, 30, 45, 60, 90 min at 37°C; for Metabolic conversion rate at different protein concentrations: liver microsomal protein 0, 0.25, 0.5, 0.75, 1, 2 mg/mL, 60 min
Experimental: Before the experiment, the mice were fasted for 12 h, and were euthanized after blood was taken from the eye sockets. The liver was quickly removed and perfused with pre-cooled saline through the hepatic portal vein until the liver was earthy yellow, washed three times with 1.15% KCl solution, wiped dry with filter paper, and then weighed. The liver was then cut up, homogenized with three times the volume of ethylene diamine tetraacetic acid (EDTA) in an ice bath, and centrifuged at 4°C for 10 min at 3,000 g. The supernatant was filtered, and the filtrate was centrifuged at 4°C for 20 min at 12,000 g. The supernatant was then centrifuged at 4°C for 45 min at 100,000 g, and the precipitate was resuspended in a resuspension solution (EDTA homogenate containing 20% glycerol). The protein concentration of the microsomes was determined using the BCA protein concentration determination kit, and the microsomes were aliquoted and pre-stored at −20°C for 60 min and transferred to −80°C for storage.
The total volume of the reaction was kept at 200 μL. The in vitro incubation system comprised of 50 μL liver microsomes (1 mg/mL), 50 μL specific inhibitor solution, 20 μL nicotinamide adenine dinucleotide phosphate (NADPH, 1 mmol/L), and 80 μL standard solution (100 ng/mL). The solution containing liver microsomes, specific inhibitors, and the standard solution was pre-incubated for 5 min at 37°C. NADPH, pre-incubated for 5 min at 37°C, was added to commence the reaction, and the solution was incubated for 60 min at 37°C on a thermostatic oscillator. At the end of the reaction, […] of ice-cold methanol containing the IS (the final concentrations of digoxin and puerarin were 0.745 μg/mL and 1 μg/mL, respectively) was added to terminate the reaction. The samples were vortexed for 1 min and centrifuged for 10 min (15,000 r/min). The contents of six active components in the supernatant were determined by HPLC-MS-MS. All reactions were performed in triplicate.
The six-component mixed standard solutions were incubated with the liver microsomal sample of different protein concentrations (0, 0.25, 0.5, 0.75, 1, 2 mg/mL) for 60 min, each with six replicates. Subsequently, samples were prepared according to the methods described in Section 2.6. The residual contents of the six effective components in each group were determined by HPLC-MS/MS to calculate the metabolic conversion rate.
The mixed standard solution containing the six components was incubated with mouse liver microsomes at 37°C for different time (0, 15, 30, 45, 60, 90 min), each with six replicates. Subsequently, samples were prepared according to the methods described in Section 2.6. The residual contents of the six effective components in each group were determined by HPLC-MS/MS to calculate the metabolic conversion rate.
The standard solution of astragaloside IV, glycyrrhizic acid, calycosin-glucuronide, formononetin, calycosin-7-O-β-D-glucoside, and ononin was added to phosphate-buffered saline (PBS, pH 7.0) as desired for dilution to produce a series of mixed solutions (50, 100, 250, 500, 1,000 ng/mL). Each mixed solution sample was incubated with 1.0 mg/mL liver microsomes for 60 min. The residual contents of the six effective components were determined by HPLC-MS/MS to calculate the metabolic conversion rate.
Α-naphthoflavone, quinidine, clomethiazole, ticlopidine, ketoconazole, and fluconazole were selected as specific inhibitors of CYP1A2, CYP2D22, CYP2E1, CYP2C37, CYP3A11, and CYP2C11, respectively ([El-Sherbeni and El-Kadi, 2014]; [Xu et al., 2016]). Forty-eight mice were randomly divided into eight groups of six mice each. The eight groups comprised six different specific inhibitor groups, a negative control group and a control group. For different specific inhibitor groups, mouse liver microsomes were incubated with related CYP450 enzyme specific inhibitors and mixed standard solutions.

[2] = set-up: method as in Wang et al., 2022c; settings: oral administration of HQD, ref Wang et al., 2022c; cited from earlier work
CYP3A11 = test: Mouse liver microsomal incubation with ketoconazole, specific inhibitor of CYP3A11; type: in vitro ADME; settings: mouse liver microsomes 1 mg/mL, 60 min, 37°C, component 100 ng/mL, vs negative control without inhibitor
Experimental: (§1) All reactions were performed in triplicate.

CYP2C11 = test: Mouse liver microsomal incubation with fluconazole, specific inhibitor of CYP2C11; type: in vitro ADME; settings: mouse liver microsomes 1 mg/mL, 60 min, 37°C, component 100 ng/mL, vs negative control without inhibitor
Experimental: as §1

liver CYP450 enzymes = test: Mouse liver microsomal incubation with the panel of specific CYP enzyme inhibitors; type: in vitro ADME; settings: mouse liver microsomes 1 mg/mL, 60 min, 37°C, component 100 ng/mL; inhibitors of CYP1A2, CYP2D22, CYP2E1, CYP2C37, CYP3A11, CYP2C11
Experimental: as §1

CYP2E1 = molecular target: T1, CYP2E1 (Mus musculus, UniProt Q05421); test: Mouse liver microsomal incubation with clomethiazole, specific inhibitor of CYP2E1; type: in vitro ADME; settings: mouse liver microsomes 1 mg/mL, 60 min, 37°C, component 100 ng/mL, vs negative control without inhibitor
T1 construct: from tissue; host or cells: liver microsomes of control (db/m) mice
T1 sequence (Q05421 whole entry): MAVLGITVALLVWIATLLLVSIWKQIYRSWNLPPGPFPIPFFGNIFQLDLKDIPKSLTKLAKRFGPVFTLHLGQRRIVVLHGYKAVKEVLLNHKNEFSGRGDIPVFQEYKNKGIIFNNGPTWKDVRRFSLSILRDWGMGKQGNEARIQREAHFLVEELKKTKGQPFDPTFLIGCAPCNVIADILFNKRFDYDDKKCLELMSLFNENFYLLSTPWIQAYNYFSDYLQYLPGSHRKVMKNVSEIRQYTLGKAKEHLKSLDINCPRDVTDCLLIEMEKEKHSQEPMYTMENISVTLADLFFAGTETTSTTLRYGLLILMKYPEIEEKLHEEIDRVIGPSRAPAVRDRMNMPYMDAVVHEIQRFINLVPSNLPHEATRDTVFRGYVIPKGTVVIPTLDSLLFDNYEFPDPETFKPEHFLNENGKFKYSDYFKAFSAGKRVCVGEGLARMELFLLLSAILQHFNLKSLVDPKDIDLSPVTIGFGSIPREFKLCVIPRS
Experimental: as §1

CYP1A2 = molecular target: T2, CYP1A2 (Mus musculus, UniProt P00186); test: Mouse liver microsomal incubation with α-naphthoflavone, specific inhibitor of CYP1A2; type: in vitro ADME; settings: mouse liver microsomes 1 mg/mL, 60 min, 37°C, component 100 ng/mL, vs negative control without inhibitor
T2 construct: from tissue; host or cells: liver microsomes of control (db/m) mice
T2 sequence (P00186 1-513): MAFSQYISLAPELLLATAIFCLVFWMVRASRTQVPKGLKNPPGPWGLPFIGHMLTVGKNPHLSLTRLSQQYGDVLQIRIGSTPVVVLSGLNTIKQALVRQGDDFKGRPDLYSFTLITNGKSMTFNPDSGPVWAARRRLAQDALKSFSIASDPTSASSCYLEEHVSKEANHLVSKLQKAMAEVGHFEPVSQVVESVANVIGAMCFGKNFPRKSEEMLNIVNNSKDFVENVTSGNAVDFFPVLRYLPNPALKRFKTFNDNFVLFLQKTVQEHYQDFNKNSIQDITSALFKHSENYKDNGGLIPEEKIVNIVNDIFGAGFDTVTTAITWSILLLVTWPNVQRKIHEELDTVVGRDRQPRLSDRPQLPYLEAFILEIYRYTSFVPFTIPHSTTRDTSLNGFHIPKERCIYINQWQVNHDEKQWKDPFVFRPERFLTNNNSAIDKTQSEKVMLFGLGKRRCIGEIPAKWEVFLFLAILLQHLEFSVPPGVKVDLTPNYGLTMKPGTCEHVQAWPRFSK
Experimental: as §1

CYP2C37 = molecular target: T3, CYP2C37 (Mus musculus, UniProt P56654); test: Mouse liver microsomal incubation with ticlopidine, specific inhibitor of CYP2C37; type: in vitro ADME; settings: mouse liver microsomes 1 mg/mL, 60 min, 37°C, component 100 ng/mL, vs negative control without inhibitor
T3 construct: from tissue; host or cells: liver microsomes of control (db/m) mice
T3 sequence (P56654 21-490): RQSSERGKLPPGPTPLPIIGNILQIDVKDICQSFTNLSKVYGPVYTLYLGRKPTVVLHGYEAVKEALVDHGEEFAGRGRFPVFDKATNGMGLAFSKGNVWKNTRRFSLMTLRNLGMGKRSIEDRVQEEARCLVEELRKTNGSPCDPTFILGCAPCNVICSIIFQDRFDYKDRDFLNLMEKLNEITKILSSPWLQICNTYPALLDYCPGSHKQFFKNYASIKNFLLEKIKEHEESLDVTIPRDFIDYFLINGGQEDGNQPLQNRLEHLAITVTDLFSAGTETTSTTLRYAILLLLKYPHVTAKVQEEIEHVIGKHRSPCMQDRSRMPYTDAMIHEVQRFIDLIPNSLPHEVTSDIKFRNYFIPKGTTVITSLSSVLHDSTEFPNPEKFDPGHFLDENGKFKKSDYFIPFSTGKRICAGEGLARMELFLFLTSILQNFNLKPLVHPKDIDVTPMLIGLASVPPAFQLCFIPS
Experimental: as §1

SMILES	Metabolic conversion rate under different reaction times [1]	Metabolic conversion rate at different protein concentrations [1]	Absorption and elimination in mice with diabetic nephropathy [2]	Effect of ketoconazole (CYP3A11 inhibitor) on metabolism of the component (residual content) (CYP3A11)	Effect of fluconazole (CYP2C11 inhibitor) on metabolism of the component (residual content) (CYP2C11)	Effect of the specific CYP enzyme inhibitors on metabolism of the component (liver CYP450 enzymes)	Effect of clomethiazole (CYP2E1 inhibitor) on metabolism of the component (residual content) (CYP2E1)	Effect of α-naphthoflavone (CYP1A2 inhibitor) on metabolism of the component (residual content) (CYP1A2)	Effect of ticlopidine (CYP2C37 inhibitor) on metabolism of the component (residual content) (CYP2C37)
COc1ccc(-c2coc3cc(O)ccc3c2=O)cc1 [Formononetin]	increased with time, however, saturated after 60 min	initially increased with the increase in protein concentration	greater absorption and delayed elimination	prevented the metabolism	prevented the metabolism				
COc1ccc(-c2coc3cc(O[C@@H]4O[C@H](CO)[C@@H](O)[C@H](O)[C@H]4O)ccc3c2=O)cc1O [Calycosin-7-O-β-D-glucoside]	increased with time, however, saturated after 60 min	initially increased with the increase in protein concentration	greater absorption and delayed elimination			not affected			
COc1ccc(-c2coc3cc(O)ccc3c2=O)cc1O	increased with time, however, saturated after 60 min	initially increased with the increase in protein concentration	greater absorption and delayed elimination				prevented the metabolism	prevented the metabolism	
CC(C)(O)[C@@H]1CC[C@](C)([C@H]2[C@@H](O)C[C@@]3(C)[C@@H]4C[C@H](O[C@@H]5O[C@H](CO)[C@@H](O)[C@H](O)[C@H]5O)[C@H]5C(C)(C)[C@@H](O[C@@H]6OC[C@@H](O)[C@H](O)[C@H]6O)CC[C@@]56C[C@@]46CC[C@]23C)O1 [Astragaloside IV]	increased with time, however, saturated after 60 min	initially increased with the increase in protein concentration	greater absorption and delayed elimination		prevented the metabolism				prevented the metabolism
COc1ccc(-c2coc3cc(O[C@@H]4O[C@H](CO)[C@@H](O)[C@H](O)[C@H]4O)ccc3c2=O)cc1 [Ononin]	increased with time, however, saturated after 60 min	initially increased with the increase in protein concentration	greater absorption and delayed elimination			not affected			
CC1(C)[C@@H](O[C@H]2O[C@H](C(=O)O)[C@@H](O)[C@H](O)[C@H]2O[C@@H]2O[C@H](C(=O)O)[C@@H](O)[C@H](O)[C@H]2O)CC[C@]2(C)[C@H]3C(=O)C=C4[C@@H]5C[C@@](C)(C(=O)O)CC[C@]5(C)CC[C@@]4(C)[C@]3(C)CC[C@@H]12 [Glycyrrhizic acid]	increased with time, however, saturated after 60 min	initially increased with the increase in protein concentration	greater absorption and delayed elimination	prevented the metabolism					prevented the metabolism
